Measurements taken from patent US6395787B1, “Ocular hypotensive lipids” (Allergan Sales, Inc., priority 2000, dated 2002).

Tests used:
[1] = system: isolated guinea pig ileum (EP1 receptor preparation); assay: Isolated guinea pig ileum contraction
Method: (§1) Smooth muscle tension of isolated tissues was measured isometrically with force displacement transducers (Grass FT-03) and recorded on Grass Polygraphs (Models 7G and 79E). The organ baths contained Krebs solution maintained at 37° C. and gassed with 95% 02/5% CO2 to give a pH of 7.4. The Krebs solution had the following composition (mM): NaCl, 118.0; KCl, 4.7; KH2PO4, 1.2; CaCl2, 1.9; MgSO4, 1.18; NaHCO3, 25.0; glucose, 11.7; indomethacin, 0.001.
The guinea pig ileum is an EP1 receptor preparation. An approximately 1.5 cm segment of guinea pig ileum was suspended in a jacketed organ bath under 1 g tension. Following a 1 hr equilibration period, a wash-out dose response curve for PGE2 was obtained. 30 min wash-out periods were allowed between doses. […] A final administration of PGE2 10^−6 M was given as a reference. Data were expressed as % maximal of the PGE2 response.

[2] = system: human platelets (DP-, TP- and IP-receptor types); assay: Human platelet aggregation and inhibition of ADP-induced aggregation; type: cell-based
Method: Prostanoid activity at the DP-, TP- and IP-receptor types was determined by an ability to cause aggregation (TP-receptor activity) or to inhibit ADP-induced aggregation of human platelets in vitro (DP- and IP-receptor activity). Fresh whole blood was obtained from consenting healthy human volunteers and mixed with acid citrate-dextrose (ACD). The blood was centrifuged at 1000 rpm for 15-20 minutes to obtain platelet rich plasma (PRP). 4.5 μl of prostanoid or vehicle was added to 450 μl of PRP and incubated for 2 minutes at 37° C. in a Payton aggregometer and observed for any aggregatory activity. 2×10^−5 M ADP (final concentration) was then added to induce full aggregation. Inhibition of aggregation was calculated as the percentage difference between aggregation evoked by 2×10^−5 M ADP in the absence and presence of drug. Aggregatory activity was calculated as the percent aggregation induced by the prostanoid relative to the aggregation induced by 2×10^−5 M ADP. Standard aggregatory responses to 2×10^−5 M ADP alone were performed at the beginning and end of each experiment.

[3] = system: rabbit jugular vein segment; assay: Vasorelaxation of histamine precontracted rabbit jugular vein segment
Method: as §1
New Zealand albino rabbit of either sex, weighing 2-4 kg, were injected with 1000 U heparin into the marginal ear vein and then sacrificed by CO2 gas. The external jugular veins were cleared of fat and adherent connective tissue and removed. The veins were transected and each ring of 3-4 mm length was suspended between two metal hooks in a jacketed organ bath. The tissues were equilibrated for 1 hr under 0.75 g tension, which was readjusted as the tissues relaxed. Single doses of histamine, 10^−5 M then 2-3×10^−6 M, with washing after each dose, were given to contract the tissue and establish responsiveness. The TP-receptor antagonist SQ29548, (Ogletree et al. (1985) J. Pharmacol. Exp. Ther. 234 435-441) at (10^−6 M), was applied for 5 min and then histamine 2-3×10^−6 M was added to elicit the contractile response. After 30 min of pretreatment with the histamine, the relaxant response was tested by adding cumulative doses of the test compounds with 10^−8 M to 10^−7 M PGE2 at the end of each dose-response curve as a reference. A recovery period of 30-50 min was allowed after wash-out of the tissues. Relaxant activity was calculated as % of the control tone elicited by histamine.

human FP receptor = human FP receptor (Homo sapiens, UniProt P43088); assay: Radioligand binding competition vs 3H-17-phenyl PGF2α, recombinant human FP receptor; parameters: expressed in transfected cells; details: for % specific binding mean χ ± SEM: vs 5nM 3H-17-phenyl PGF2α, n = 3
human FP receptor, sequence (P43088 whole entry): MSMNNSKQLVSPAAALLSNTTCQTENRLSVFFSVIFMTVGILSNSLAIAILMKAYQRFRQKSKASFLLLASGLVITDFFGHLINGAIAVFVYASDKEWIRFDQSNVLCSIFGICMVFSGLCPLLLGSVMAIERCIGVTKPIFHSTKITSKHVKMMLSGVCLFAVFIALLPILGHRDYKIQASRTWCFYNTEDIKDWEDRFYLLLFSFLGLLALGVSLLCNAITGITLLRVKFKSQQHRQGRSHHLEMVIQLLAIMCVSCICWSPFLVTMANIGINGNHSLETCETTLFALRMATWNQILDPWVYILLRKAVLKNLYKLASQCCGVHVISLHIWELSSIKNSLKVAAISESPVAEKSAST
Method: Plasma membrane preparations of HEK 293 cells stably transfected with the human or feline FP receptor were obtained as follows. Cells washed with TME buffer were scraped from the bottom of the flasks and homogenized for 30 sec using a Brinkman PT 10/35 polytron. TME buffer was added as necessary to achieve a 40 ml volume in the centrifuge tubes. TME is comprised of 100 mM TRIS base, 20 mM Mg Cl2, 2 m EDTA; physiological pH is achieved by adding 10 N HCl. The cell homogenate was centrifuged at 19,000 rpm for 20 min at 4-6° C. using a Beckman Ti-60 rotor. The pellet was then resuspended in TME buffer to provide a final protein concentration of 1 mg/ml, as determined by Biorad assay. Radioligand binding assays were performed in a 200 μl volume.
Incubations were for 60 min at 25° C. and were terminated by the addition of 4 ml of ice-cold 50 mM TRIS-HCl followed by rapid filtration through Whatman GF/B filters and three additional 4 ml washes in a cell harvester (Brandel).

EC50 ([3]; Oryctolagus cuniculus, histamine precontracted, read-out: E.C.50, vasorelaxation of the precontracted rabbit jugular vein segment): 2 µM
% specific binding mean χ ± SEM (human FP receptor; 10^−5 M): 19.7 ± 1.2%
% specific binding mean χ ± SEM (human FP receptor; 10^−6 M): 63.7 ± 2.7%
% specific binding mean χ ± SEM (human FP receptor; 10^−7 M): 95.9 ± 1.5%
% specific binding mean χ ± SEM (human FP receptor; 10^−8 M): 103.3 ± 0.3%
% specific binding mean χ ± SEM (human FP receptor; 10^−9 M): 94.7 ± 1.4%
IC50 (human FP receptor; read-out: I.C.50, radioligand binding): 2.02 µM
SMILES: CCCCC[C@H](O)/C=C/[C@@H]1[C@@H](C/C=C\CCCC(=O)NCCO)[C@@H](O)C[C@H]1O [PGF2α 1-ethanolamide, (5Z,8α,9α,11α,13E,15S)-9,11,15-trihydroxy-N-(2-hydroxyethyL)prosta-5,13-dien-1-amide]
Emax at 10 µM ([1]; Cavia porcellus, 10^−5 M, reference contraction PGE2 10^−6 M, n = 4, read-out: % Maximal response mean χ ± SEM): 9.7 ± 4.2%
Emax at 1 µM ([1]; Cavia porcellus, 10^−6 M, reference contraction PGE2 10^−6 M, n = 4, read-out: % Maximal response mean χ ± SEM): 4 ± 2.6%
Emax at 0.1 µM ([1]; Cavia porcellus, 10^−7 M, reference contraction PGE2 10^−6 M, n = 4, read-out: % Maximal response mean χ ± SEM): 0%
Emax at 0.01 µM ([1]; Cavia porcellus, 10^−8 M, reference contraction PGE2 10^−6 M, n = 4, read-out: % Maximal response mean χ ± SEM): 0%
effect in the guinea pig ileum ([1]; compared with chick ileum): less effective
effect on platelets (aggregation; inhibition of ADP induced aggregation) [2]: No effect
endothelium dependent vasorelaxation ([3]; histamine precontracted rabbit jugular vein segment): relatively little activity
